{"source": "patent US5773458A", "about": "“1-azabicycloheptane derivatives” (American Home Products Corporation, priority 1997, dated 1998)", "biological_target": "T1, M1 acetylcholine receptors (Homo sapiens, UniProt P11229)", "T1 construct": "expressed in transfected cells; host or cells: Chinese Hamster Ovary (CHO) cells, CMV vector", "T1 sequence (P11229 1-460)": "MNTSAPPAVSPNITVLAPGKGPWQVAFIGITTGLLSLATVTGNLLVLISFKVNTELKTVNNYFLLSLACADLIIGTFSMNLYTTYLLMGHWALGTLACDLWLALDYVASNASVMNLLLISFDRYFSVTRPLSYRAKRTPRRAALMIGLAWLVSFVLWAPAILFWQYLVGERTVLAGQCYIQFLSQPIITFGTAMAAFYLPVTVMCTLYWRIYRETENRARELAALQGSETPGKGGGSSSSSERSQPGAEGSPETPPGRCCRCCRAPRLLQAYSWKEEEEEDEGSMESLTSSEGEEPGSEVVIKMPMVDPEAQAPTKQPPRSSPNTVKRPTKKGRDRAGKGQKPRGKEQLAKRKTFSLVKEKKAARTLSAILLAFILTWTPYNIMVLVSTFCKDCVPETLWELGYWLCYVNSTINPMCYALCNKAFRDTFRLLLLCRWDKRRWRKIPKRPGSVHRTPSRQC", "assay": "Phosphoinositide (PI) hydrolysis in transfected CHO cells", "format": "cell-based", "conditions": "statement in words, no figures given", "experimental": "The tubes are incubated for one hour at 37° C. The reaction is quenched with chloroform and the phosphatidyl inositols are extracted with methanol and chloroform. Phase separation is assured with the addition of methanol and water followed by centrifugation. The tritiated inositol phosphates are recovered on BioRad AG 1-X8 anion exchange resin in the formate cycle. After washing the resin with water and myo-inositol, the inositol phosphates are eluted with ammonium formate/formic acid, collected and subjected to liquid scintillation spectroscopy."}
{"smiles": "CNC(=O)O[C@@H]1C[N+]2([O-])CC[C@@H]1C2", "note": "(relative stereo) [Example 1, (exo)--Methylcarbamic acid 1-oxy-1-aza-bicyclo[2.2.1]hept-3-yl ester]", "values": [{"measurement": "functional m1 muscarinic agonism", "result": "enhanced muscarinic agonism"}]}
